Measured values: patent publication US12522590B2, “Brefeldin a derivatives, preparation method and use thereof” (OCEAN UNIVERSITY OF CHINA, priority 2019, dated 2026)
Converted amounts (≈) assume the structure as drawn. Where two headings read alike, the source gives them in different places.

How the values were obtained:
[1] = Solubility test (shake 37° C., 24 h, HPLC); type: physicochemical; conditions: x ± s; for solubility at 24 h: thermodynamic from solid
Procedure: The term “solubility” refers to the mass of solute dissolved when a solid substance reaches saturation state in 100 g solvent at a certain temperature. Solubility test refer to the following references: ZHU Shang-bin, et al. Preparation, characterization, and physicochemical properties of arbutin phospholipid complex[J]. Chinese Traditional and Herbal Drugs. 2020, 1-10.
Methods: Excess BFA and the compounds disclosed herein were added to 10 mL of three solvents, methanol, acetone and 5% DMSO+95% H2O, respectively, and shaken on a shaker at 37° C. at 100 r/min for 24 h. After 24 h, the samples were centrifuged at 15 000 r/min for 15 min to remove the undissolved compounds. The supernatant was filtered using a 0.45 μm membrane filter. The supernatant was appropriately diluted with methanol and contents of the compounds were determined by HPLC method to calculate the solubility.

[2] = tested on: Human cervical cancer cells Hela; assay: Cell proliferation assay (CCK-8); type: cell-based; conditions: 72 h
Text: (§1) CCK-8 method: The CCK-8 method is a highly sensitive, non-radioactive colorimetric assay for the determination of the number of viable cells in cell proliferation or cytotoxicity assays. The orange formazan dye produced by the bioreduction of CCK-8 by intracellular dehydrogenase is soluble in the cell culture medium, and the amount of formazan dye produced is proportional to the number of living cells. The kit used in this method is the tetrazolium salt-WST-8 (2-(2-methoxy-4-nitrophenyl)-3-(4-nitrophenyl)-5-(2,4-disulfophenyl)-2H-tetrazolium monosodium salt) developed by Dojindo Chemical Research Institute (Dojindo), which is capable of being reduced to a water-soluble formazan dye in the presence of the electronic carrier 1-Methoxy PMS.
(§2) Human cervical cancer cells Hela, pancreatic cancer cells PANC-1, esophageal cancer cells Eca-109, human leukemia cells K562, human lung cancer cells A549, human liver cancer cells HepG2, human gastric cancer cells MKN-45, human breast cancer cells MCF7 were cultured in DMEM medium containing 10% FBS (fetal bovine serum), 100 U/mL penicillin and 100 μg/ml streptomycin. Hepatocellular carcinoma cells Bel-7402 were cultured in RPMI-1640 medium containing 10% FBS (fetal bovine serum), 100 U/ml penicillin and 100 μg/ml streptomycin. All cells were placed in a cell culture incubator at 37° C. with 5% CO2. Cells fluid was changed every 3-5 days, and after 80% cell fusion, trypsin digestion and passaging were performed to keep the cells in good logarithmic growth phase.
(§3) All the samples to be tested were dissolved in DMSO.
(§4) Cells in logarithmic growth phase were inoculated in 96-well plates with 5000 cells/well respectively, and after 24 h of incubation, samples were added (final concentrations as shown in the table), and biplicate wells were set up for each sample. The amount of solvent of DMSO was not higher than 2‰. After 72 h, 10 μL of CCK-8 solution was added to each well and incubated for 1.5˜3 h at 37° C. The OD value at 450 nm was measured on an plate reader. Inhibition rate (%)=(1−[(OD450 dosed well−OD450 blank well)/(OD450 control well−OD450 blank well)])×100%
(§5) The fitted IC50 values were calculated using the log (inhibitor) vs. response—Variable slop analysis method in GraphPad Prism software.

[3] = tested on: human breast cancer cells MCF7; assay: Cell proliferation assay (CCK-8); type: cell-based; conditions: MCF7, 72 h
Text: as §1, §2, §3, §4, §5

[4] = tested on: human gastric cancer cells MKN-45; assay: Cell proliferation assay (CCK-8); type: cell-based; conditions: MKN-45, 72 h
Text: as §1, §2, §3, §4, §5

[5] = tested on: human leukemia cells K562; assay: Cell proliferation assay (CCK-8); type: cell-based; conditions: K562, 72 h
Text: as §1, §2, §3, §4, §5

[6] = tested on: human liver cancer cells HepG2; assay: Cell proliferation assay (CCK-8); type: cell-based; conditions: HepG2, 72 h
Text: as §1, §2, §3, §4, §5

[7] = tested on: human lung cancer cells A549; assay: Cell proliferation assay (CCK-8); type: cell-based; conditions: A549, 72 h
Text: as §1, §2, §3, §4, §5

[8] = tested on: esophageal cancer cells Eca-109; assay: Cell proliferation assay (CCK-8); type: cell-based, human; conditions: Eca-109, 72 h
Text: as §1, §2, §3, §4, §5

[9] = tested on: pancreatic cancer cells PANC-1; assay: Cell proliferation assay (CCK-8); type: cell-based, human; conditions: PANC-1, 72 h
Text: as §1, §2, §3, §4, §5

Kunming breed mice = assay: Acute toxicity test, single intragastric administration; type: in vivo
Text: Objective: Observation of toxic effects of compounds after a single intragastric administration (ig.) to mice
1) Agents: Compounds disclosed herein were formulated to a suitable concentration.
2) Animals: Kunming breed mice, weight 18-22 g, male.

[10] = Pharmacokinetic evaluation (plasma BFA by LC/MS/MS); type: in vivo, SD rats; conditions: iv
Procedure: SD rats were weighed after an overnight fasting of 15 hours and randomly grouped according to weights. The appropriate amount of the compound was accurately weighed, and a final volume of 5% DMSO, 10% Solutol, and 85% Saline was added and vortexed or sonicated to make a thorough mixing to provide a 4 mg/mL solution for intravenous administration (iv.). Venous blood was taken at the time points of 0, 0.083 (iv. group only), 0.25, 0.5, 1.0, 2.0, 5.0, 7.0 and 24 h, via jugular vein or other suitable means, with approximately 0.20 mL of each sample collected, anticoagulated with sodium heparin (with 6.25 μL of 200 mM DDVP/tube added), and placed on ice after collection. The plasma was separated by centrifugation within 2 hours (centrifugal force 6800 g, 6 min, 2-8° C.). The collected plasma samples were stored in a −70° C. refrigerator before analysis, and the remaining plasma samples after analysis were kept stored at −20° C. or −70° C. until LC/MS/MS analysis was performed. The accuracy of QC samples was evaluated while analyzing the samples, and more than 66% of the QC samples were required to have an accuracy between 80-120%. When plasma drug concentration-time curves were plotted, BLQ were recorded as 0. For the calculation of pharmacokinetic parameters, the concentration before dosing was counted as 0; BLQ before Cmax (including “No peak”) was counted as 0; BLQ after Cmax (including “No peak”) was not included in the calculation. Pharmacokinetic parameters such as AUC(0-t), T1/2, Cmax, Tmax and MRT were calculated according to the blood concentration data of BFA at different time points using WinNonlin.

[11] = SD rats, 20 mg/kg, blood concentration of BFA
[12] = aqueous with cosolvent or surfactant or cyclodextrin, 5% DMSO + 95% H2O, n = 3, read-out: Solubility, 5% DMSO + 95% H2O
[13] = organic solvent or mixture, acetone, n = 3, read-out: Solubility, Acetone
[14] = organic solvent or mixture, methanol, n = 3, read-out: Solubility, Methanol
[15] = mice, single ig., high and low doses (BFA effective amount conversion)
[16] = Sprague-Dawley, rat, in vivo, 30 mg/kg
[17] = mice, single ig., high and low doses (BFA effective amount conversion), within 72 h

Compound	solubility at 24 h [1, 12]	solubility at 24 h [1, 13]	solubility at 24 h [1, 14]	IC50 ([2]; Homo sapiens)	IC50 ([3]; Homo sapiens)	IC50 ([4]; Homo sapiens)	IC50 ([5]; Homo sapiens)	IC50 ([6]; Homo sapiens)	IC50 ([7]; Homo sapiens)	IC50 ([8]; Homo sapiens)	IC50 ([9]; Homo sapiens)	Mental condition after administration (Kunming breed mice; [15])	Death within 72 h (Kunming breed mice; [17])	also measured
C[C@H]1CCC/C=C/[C@@H]2C[C@H](O)C[C@H]2[C@H](O)/C=C/C(=O)O1 [BFA, Brefeldin A]														Solubility, 5% DMSO + 95% H2O ([1]; 5% DMSO + 95% H2O, n = 3): 0.085 ± 0.03 mg/mL; Solubility, Acetone ([1]; acetone, n = 3): 3.13 ± 1.24 mg/mL (≈ 11.2 mM); Solubility, Methanol ([1]; methanol, n = 3): 3.13 ± 1.24 mg/mL (≈ 11.2 mM); IC50 [2]: 100 to 1000 nM; IC50 [3]: < 100 nM; IC50 [4]: 100 to 1000 nM; IC50 [5]: 100 to 1000 nM; IC50 [6]: 100 to 1000 nM; IC50 [7]: 100 to 1000 nM; IC50 [8]: 100 to 1000 nM; IC50 [9]: < 100 nM; Mortality within 24 h (Kunming breed mice; mice, single ig., high dose 1000 mg/kg, within 24 h): all animals died; Animals died within 72 h (Kunming breed mice; mice, single ig., low dose 750 mg/kg, within 72 h): ⅔; AUCINF [10, 11]: 4448.31 ng·h/mL; AUClast [10, 11]: 4450.24 ng·h/mL; Cmax [10, 11]: 5744.26 ng/mL; MRTINF [10, 11]: 11.4 min; T1/2 [10, 11]: 25.2 min; Tmax [10, 11]: 15 min
C[C@H]1CCC/C=C/[C@@H]2C[C@H](OC(=O)OCc3cccnc3)C[C@H]2[C@H](O)/C=C/C(=O)O1 [Compound 1, BFA-7-(pyridine-3-ylmethyl)carbonate]	2.73 ± 0.21 mg/mL	68.7 ± 2.53 mg/mL (≈ 165 mM)	74.3 ± 2.52 mg/mL (≈ 179 mM)	100 to 1000 nM	100 to 1000 nM	< 100 nM	100 to 1000 nM	< 100 nM	< 100 nM	< 100 nM	100 to 1000 nM	good mental conditions		Death within 72 h (Kunming breed mice; mouse, in vivo): no death; AUCINF [10, 16]: 5763.29 ng·h/mL; AUClast [10, 16]: 5766.31 ng·h/mL; Cmax [10, 16]: 7192.20 ng/mL; MRTINF [10, 16]: 11.4 min; T1/2 [10, 16]: 15 min; Tmax [10, 16]: 15 min
COc1ccc(COC(=O)O[C@@H]2C[C@H]3[C@H](O)/C=C/C(=O)O[C@@H](C)CCC/C=C/[C@@H]3C2)cn1 [Compound 6]	2.95 ± 1.61 mg/mL	70.6 ± 1.44 mg/mL (≈ 158 mM)	70.4 ± 3.35 mg/mL (≈ 158 mM)	100 to 1000 nM	100 to 1000 nM	< 100 nM	100 to 1000 nM	100 to 1000 nM	< 100 nM	100 to 1000 nM	100 to 1000 nM	good mental conditions	no death	
C[C@H]1CCC/C=C/[C@@H]2C[C@H](OC(=O)OCc3cnc4ccccc4c3)C[C@H]2[C@H](O)/C=C/C(=O)O1 [Compound 11, BFA-7-(quinoline-3-ylmethyl)carbonate]	2.65 ± 1.8 mg/mL	67.6 ± 2.74 mg/mL (≈ 145 mM)	69.3 ± 4.35 mg/mL (≈ 149 mM)	100 to 1000 nM	100 to 1000 nM	100 to 1000 nM	100 to 1000 nM	100 to 1000 nM	100 to 1000 nM	< 100 nM	< 100 nM	good mental conditions	no death	
